Experimental data published in US11325913B2, “Compounds and methods for the treatment of malaria” (THE BROAD INSTITUTE, INC., priority 2013, dated 2022).

test system: P. falciparum Dd2; assay: Activity against the Dd2 strain of P. falciparum (SYBR Green I, 72 h); assay type: cell-based; details: Plasmodium falciparum, DD2, 72 h, P. falciparum Dd2, 72 h incubation
Description: The Dd2 strain of P. falciparum was cultured in complete medium (RPMI with L-glutamine, 4.3% heat-inactivated O-positive human serum, 2.08 mg/ml albumax, 0.013 mg/ml hypoxanthine, 1.17 mg/ml glucose, 0.18% NaHCO3, 0.031 M Hepes, 2.60 mM NaOH, and 0.043 mg/ml gentamicin) until the parasitemia reached 3-8%. Parasitemia was determined by checking at least 500 red blood cells from a Giemsa-stained blood smear. The Dd2 cultures along with tested O-positive red blood cells were centrifuged at room temperature at 2,000 rpm for 5 minutes using an Eppendorf centrifuge 5810R with an A-4-81 rotor. The medium was aspirated off. For the compound screening, a parasite dilution at a 1% parasitemia and 1.0% hematocrit was created with screening medium (RPMI with L-glutamine, 4.16 mg/ml albumax II, 0.013 mg/ml hypoxanthine, 1.73 mg/ml glucose, 0.18% NaHCO3, 0.031 M Hepes, 2.60 mM NaOH, and 0.043 mg/ml gentamicin). The suspension was gassed with 93% nitrogen, 4% carbon dioxide, and 3% oxygen and placed at 37° C. until needed. Using a liquid dispenser, 20 μl of screening medium was dispensed into 384-well, black, clear-bottom plates. With a PinTool, 100 nl of compounds dissolved in DMSO was transferred into the assay plates along with control compound (mefloquine). Next, 30 μl of the parasite suspension in screening medium was then dispensed into the assay plates such that the final parasitemia was 1% and the final hematocrit was 1.0%. Final concentration of DMSO was 0.125%. Mefloquine at a final concentration of 20 μM and DMSO at a final concentration of 0.125% were used within the assay plates to serve as background and baseline controls, respectively. The assay plates were transferred to incubators (93% nitrogen, 4% carbon dioxide, and 3% oxygen during the 72 h incubation at 37° C.). Ten microliters of detection reagent consisting of 10×SYBR Green I (Invitrogen; supplied in 10,000× concentration) in lysis buffer (20 mM Tris-HCl, 5 mM EDTA, 0.16% Saponin wt/vol, 1.6% Triton X vol/vol) was dispensed into the assay plates. For optimal staining, the assay plates were left at room temperature for 24 h in the dark. The assay plates were read by using an Envision (PerkinElmer) reader, with 505 dichroic mirrors with 485-nm excitation and 530-nm emission settings, and the plate reads were from the bottom.
By following the above-described protocol, the 50% effective concentration (EC50) for compounds 1-95 was measured against P. falciparum Dd2 and the results are shown in Table 2: […]

SMILES | EC50 [nM]
Cc1ccc(-c2ccc([C@@H]3[C@H](CO)N4CCCCN(S(=O)(=O)c5cccc(C)c5)C[C@@H]34)cc2)cc1 [Compound 26, ((8R,9S,10R)-9-(4′-methyl-[1,1′-biphenyl]-4-yl)-6-(m-tolylsulfonyl)-1,6-diazabicyclo[6.2.0]decan-10-yl)methanol] | 955
COc1ccc(C#Cc2ccc([C@@H]3[C@H](CO)N4CCCCN(C(=O)Nc5ccccc5F)C[C@@H]34)cc2)cc1 [Compound 29, (8R,9S,10R)-N-(2-fluorophenyl)-10-(hydroxymethyl)-9-(4-((4-methoxyphenyl)ethynyl)phenyl)-1,6-diazabicyclo[6.2.0] decane-6-carboxamide] | 898
COc1ccc(NC(=O)N2CCCCN3[C@H](CO)C(c4ccccc4)[C@@H]3C2)cc1 (stereo partly drawn) [Compound 31, (8R,10S)-10-(hydroxymethyl)-N-(4-methoxyphenyl)-9-phenyl-1,6-diazabicyclo[6.2.0] decane-6-carboxamide] | 1820
COc1ccc(NC(=O)N2CCCCN3[C@H](CN4CCC(C)(O)CC4)[C@H](c4ccc(C#Cc5ccccc5)cc4)[C@@H]3C2)cc1 [Compound 33, (8R,9S,10S)-10-[(4-hydroxy-4-methylpiperidin-1-yl)methyl]-N-(4-methoxyphenyl)-9-[4-(2-phenylethynyl)phenyl]-1,6-diazabicyclo[6.2.0] decane-6-carboxamide] | 2320
COc1ccc(NC(=O)N2CCN3[C@H](CO)[C@H](c4ccc(C#Cc5ccccc5)cc4)[C@@H]3C2)cc1 [Compound 34, (6R,7R,8S)-8-(hydroxymethyl)-N-(4-methoxyphenyl)-7-[4-(2-phenylethynyl)phenyl]-1,4-diazabicyclo[4.2.0] octane-4-carboxamide] | 4660
COc1ccc(C(=O)N2CCCCN3[C@H](CO)[C@H](c4ccc(C#Cc5ccccc5)cc4)[C@@H]3C2)cc1 [Compound 36, [(8R,9R,10S)-6-(4-methoxybenzoyl)-9-[4-(2-phenylethynyl)phenyl]-1,6-diazabicyclo[6.2.0]decan-10-yl]methanol] | 7900
COc1ccc(NC(=O)N2CCCCN3[C@H](CO)[C@H](c4ccc(-c5csc(-c6ccccc6)n5)cc4)[C@@H]3C2)cc1 [Compound 39, (8R,9R,10S)-10-(hydroxymethyl)-N-(4-methoxyphenyl)-9-[4-(2-phenyl-1,3-thiazol-4-yl)phenyl]-1,6-diazabicyclo[6.2.0] decane-6-carboxamide] | 5170
COc1ccc(S(=O)(=O)N2CCCCN3[C@H](CO)[C@H](c4ccc(C#Cc5ccccc5)cc4)[C@@H]3C2)cc1 [Compound 40, [(8R,9R,10S)-6-(4-methoxybenzene-sulfonyl)-9-[4-(2-phenylethynyl)phenyl]-1,6-diazabicyclo[6.2.0]decan-10-yl]methanol] | 5160
COc1ccc(NC(=O)N2CCCCN3[C@H](CO)[C@H](c4ccc(-c5ccccc5)cc4)[C@@H]3C2)cc1 [Compound 41, (8R,9R,10S)-10-(hydroxymethyl)-N-(4-methoxyphenyl)-9-(4-phenylphenyl)-1,6-diazabicyclo[6.2.0] decane-6-carboxamide] | 9830
COc1ccc(NC(=O)N2CCCCN3[C@H](CO)[C@H](c4ccc(-c5ccc(F)cc5)cc4)[C@@H]3C2)cc1 [Compound 42, (8R,9R,10S)-9-[4-(4-fluorophenyl)phenyl]-10-(hydroxymethyl)-N-(4-methoxyphenyl)-1,6-diazabicyclo[6.2.0] decane-6-carboxamide] | 9680
O=C(NC1CCCCC1)N1CCCCN2[C@H](CO)[C@H](c3ccc(C#Cc4ccccc4)cc3)[C@@H]2C1 [Compound 44, (8R,9R,10S)-N-cyclohexyl-10-(hydroxymethyl)-9-[4-(2-phenylethynyl)phenyl]-1,6-diazabicyclo[6.2.0] decane-6-carboxamide] | 1100
COc1ccc(NC(=O)N2CCCCN3[C@H](CO)[C@H](c4ccc(-c5ccccc5F)cc4)[C@@H]3C2)cc1 [Compound 46, (8R,9R,10S)-9-[4-(2-fluorophenyl)phenyl]-10-(hydroxymethyl)-N-(4-methoxyphenyl)-1,6-diazabicyclo[6.2.0] decane-6-carboxamide] | 17800
O=C(Nc1ccncc1)N1CCCCN2[C@H](CO)[C@H](c3ccc(C#Cc4ccccc4)cc3)[C@@H]2C1 [Compound 50, (8R,9R,10S)-10-(hydroxymethyl)-9-[4-(2-phenylethynyl)phenyl]-N-(pyridin-4-yl)-1,6-diazabicyclo[6.2.0] decane-6-carboxamide] | 1230

The next molecules have a lower EC50 than those just listed; values first:

EC50 [nM] | SMILES
368 | O=C(Nc1cccc(F)c1)N1CCCCN2[C@@H](CO)[C@H](c3ccc(C#Cc4cccnc4)cc3)[C@@H]2C1 [Compound 28, (8R,9R,10R)-N-(3-fluorophenyl)-10-(hydroxymethyl)-9-(4-(pyridin-3-ylethynyl)phenyl)-1,6-diazabicyclo[6.2.0] decane-6-carboxamide]
42 | O=C(Nc1ccccc1)N1CCCCN2[C@H](CO)[C@H](c3ccc(C#Cc4ccccc4)cc3)[C@@H]2C1 [Compound 30, (8R,9R,10S)-10-(hydroxymethyl)-N-phenyl-9-(4-(phenylethynyl)phenyl)-1,6-diazabicyclo[6.2.0] decane-6-carboxamide]
158 | COc1ccc(NC(=O)N2CCCCN3[C@H](CN4CCN(C)CC4)[C@H](c4ccc(C#Cc5ccccc5)cc4)[C@@H]3C2)cc1 [Compound 32, (8R,9S,10S)-N-(4-methoxyphenyl)-10-[(4-methylpiperazin-1-yl)methyl]-9-[4-(2-phenylethynyl)phenyl]-1,6-diazabicyclo[6.2.0] decane-6-carboxamide]
65 | COc1ccc(NC(=O)N2CCCCN3[C@H](COCC(=O)O)[C@H](c4ccc(C#Cc5ccccc5)cc4)[C@@H]3C2)cc1 [Compound 35, 2-{[(8R,9R,10S)-6-[(4-methoxyphenyl)carbamoyl]-9-[4-(2-phenylethynyl)phenyl]-1,6-diazabicyclo[6.2.0]decan-10-yl]methoxy}acetic acid]
15 | COc1ccc(NC(=O)N2CCCCN3[C@H](CO)[C@H](c4ccc(C#Cc5cccc(F)c5)cc4)[C@@H]3C2)cc1 [Compound 38, (8R,9R,10S)-9-{4-[2-(3-fluorophenyl)ethynyl]phenyl}-10-(hydroxymethyl)-N-(4-methoxyphenyl)-1,6-diazabicyclo[6.2.0] decane-6-carboxamide]
229 | COc1ccc(NC(=O)N2CCCCN3C[C@H](c4ccc(C#Cc5ccccn5)cc4)[C@@H]3C2)cc1 [Compound 43, (8R,9S)-N-(4-methoxyphenyl)-9-{4-[2-(pyridin-2-yl)ethynyl]phenyl}-1,6-diazabicyclo[6.2.0] decane-6-carboxamide]
846 | COc1ccc(NC(=O)N2CCCCN3[C@H](CO)[C@H](c4ccc(C#CC5CCCCC5)cc4)[C@@H]3C2)cc1 [Compound 45, (8R,9R,10S)-9-[4-(2-cyclohexylethynyl)phenyl]-10-(hydroxymethyl)-N-(4-methoxyphenyl)-1,6-diazabicyclo[6.2.0] decane-6-carboxamide]
23 | COc1ccc(NC(=O)N2C/C=C\CN3[C@H](CO)[C@H](c4ccc(C#Cc5ccccc5)cc4)[C@@H]3C2)cc1 [Compound 47, (8R,9R,10S)-10-(hydroxymethyl)-N-(4-methoxyphenyl)-9-[4-(2-phenylethynyl)phenyl]-1,6-diazabicyclo[6.2.0]dec-3-ene-6-carboxamide]
36 | COc1ccc(NC(=O)N2CCCCN3[C@@H](CN)[C@H](c4ccc(C#Cc5ccccc5)cc4)[C@@H]3C2)cc1 [Compound 48, (8R,9S,10R)-10-(aminomethyl)-N-(4-methoxyphenyl)-9-[4-(2-phenylethynyl)phenyl]-1,6-diazabicyclo[6.2.0] decane-6-carboxamide]
65 | O=C(Nc1ccccc1F)N1CCCCN2[C@H](CO)[C@H](c3ccc(C#Cc4ccccc4)cc3)[C@@H]2C1 [Compound 49, (8R,9R,10S)-N-(2-fluorophenyl)-10-(hydroxymethyl)-9-[4-(2-phenylethynyl)phenyl]-1,6-diazabicyclo[6.2.0] decane-6-carboxamide]
11 | COc1ccc(NC(=O)N2CCCCN3[C@H](CO)[C@H](c4ccc(C#Cc5ccc(F)cc5)cc4)[C@@H]3C2)cc1 [Compound 51, (8R,9R,10S)-9-{4-[2-(4-fluorophenyl)ethynyl]phenyl}-10-(hydroxymethyl)-N-(4-methoxyphenyl)-1,6-diazabicyclo[6.2.0] decane-6-carboxamide]
